The source of these data is patent publication US20230365563A1, “QUINAZOLINE COMPOUND AND APPLICATION THEREOF” (SHANGHAI PHARMACEUTICALS HOLDING CO., LTD., priority 2020, published 2023).

pIC50: −log10 of the molar value. Counter-ions that a name gives are not always drawn.

What is called pIC50 is the negative decadic logarithm of the IC50, by convention in mol/L.

One assay concerns the target T1, KRAS_G12D and cRAF (Homo sapiens, UniProt P01116, G12D).
T1 construct: purchased
The assay is described as follows: Inhibition of KRAS_G12D/cRAF binding (Cisbio binding kit, 665/615 ratio), Effect Embodiment B. Particulars: read-out: GTP-KRAS-G12D:CRAF IC50. Summed up: (§1)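 Duplicate wells received an eleven-point, threefold compound titration whose top point was the stock solution; final DMSO 1%.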

The target in another assay is T2, KRAS_WT and SOS1 (Homo sapiens, UniProt P01116).
T2 construct: purchased
The assay is described as follows: Inhibition of KRAS_WT/SOS1 binding (Cisbio binding kit, 665/615 ratio), Effect Embodiment C. Particulars: read-out: GTP-KRAS-WT:SOS1 IC50. The method in brief: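 Compounds tested as 3-fold, 11-point dilutions in duplicate at 1% DMSO final against the KRAS_WT/SOS1 binding system. IC50 derived by nonlinear regression fit.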

The target of the next assay is T3, KRAS-G12D and SOS1 (Homo sapiens, UniProt P01116, G12D).
T3 construct: purchased
The assay is described as follows: Inhibition of KRAS-G12D/SOS1 binding (Cisbio binding kit, 665/615 ratio), Effect Embodiment A. Particulars: read-out: GTP-KRAS-G12D:SOS1 IC50. The method in brief: as §1

For `Oc1cc(-c2c(Cl)cc3c(N4CC5CCC(C4)N5)nc(OCCCN4CC5(CCOC5)C4)nc3c2F)c2ccccc2c1` (single isomer, unassigned) [Compound 263, 4-((S or R)-2-(3-(6-oxa-2-azaspiro[3.4]octan-2-yl)propoxy)-4-((1R,5S)-3,8-diazacyclo[3.2.1]octan-3-yl)-6-chloro-8-fluoroquinazolin-7-yl)naphthalen-2-ol formate], the pIC50 on KRAS_G12D and cRAF was 6.93; on KRAS_WT and SOS1 it was 6.06; on KRAS-G12D and SOS1, 7.64.

In the case of `CCC(COc1nc(N2CC3CCC(C2)N3)c2cc(Cl)c(-c3cc(O)cc4ccccc34)c(F)c2n1)CN1C2CCC1COC2` (single isomer, unassigned) [Compound 201a, (4S or 4R)-4-(2-((2R or 2S)-2-(3-oxa-8-azabicyclo[3.2.1]octan-8-ylmethyl)butoxy)-4-((1R,5S)-3,8-diazabicyclo[3.2.1]octan-3-yl)-6-chloro-8-fluoroquinazolin-7-yl)naphthalen-2-ol formate], the pIC50 on KRAS_G12D and cRAF was 7.63; at KRAS_WT and SOS1 it was 5.98; on KRAS-G12D and SOS1, 7.54.

Take `Oc1cc(-c2c(Cl)cc3c(N4CC5CCC(C4)N5)nc(OCC4(CN5CCCC5)CC4)nc3c2F)c2ccccc2c1` (single isomer, unassigned) [Compound 97, 4-((S or R)-4-((1R,5S)-3,8-diazabicyclo[3.2.1]octan-3-yl)-6-chloro-8-fluoro-2-((1-(pyrrolidin-1-ylmethyl)cyclopropyl)methoxy)quinazolin-7-yl)naphthalen-2-ol]: the pIC50 was 7.81 on KRAS_G12D and cRAF; 6.54 on KRAS_WT and SOS1; 7.72 on KRAS-G12D and SOS1.

`CC1OCCN(CCCOc2nc(N3CC4CCC(C3)N4)c3cc(Cl)c(-c4cc(O)cc5ccccc45)c(F)c3n2)C1C` (single isomer, unassigned) [Compound 265d, 4-((R or S)-4-((1R,5S)-3,8-diazabicyclo[3.2.1]octan-3-yl)-6-chloro-2-(3-(2R or 2S, 3R or 3S)-2,3-dimethylmorpholinyl)propoxy)-8-fluoroquinazolin-7-yl)naphthalen-2-ol diformate]: the pIC50 is 6.73 on KRAS_G12D and cRAF; 5.31 on KRAS_WT and SOS1; 7.30 at KRAS-G12D and SOS1.

For `Oc1cc(Cl)c(C2CC2)c(-c2c(Cl)cc3c(N4CC5CCC(C4)N5)nc(OC[C@@]45CCCN4C[C@H](F)C5)nc3c2F)c1` (single isomer, unassigned) [Compound 198b, 3-((S or R)-4-((1R,5S)-3,8-diazabicyclo[3.2.1]octan-3-yl)-6-choro-8-fluoro-2-((2R,7aS)-2-fluorotetrahydro-1H-pyrrolin-7a(5H)-yl)methoxy)quinazolin-7-yl)-5-chloro-4-cyclopropylphenol formate], the pIC50 at KRAS_G12D and cRAF is 7.41; at KRAS_WT and SOS1, 6.98; on KRAS-G12D and SOS1, 7.27.

On to `C[C@@H](COc1nc(N2C[C@H]3CC[C@@H](C2)N3)c2cc(Cl)c(-c3cc(O)cc4ccccc34)c(F)c2n1)CN1[C@@H]2CCC[C@H]1COC2` (single isomer, unassigned) [Compound 210, (S or R) 4-(2-((R)-3-((1R,5S)-3-oxa-9-azabicyclo[3.3.1]nonan-9-yl)-2-methylpropoxy)-4-((1R,5S)-3,8-diazabicyclo[3.2.1]octan-3-yl)-6-chloro-8-fluoroquinazolin-7-yl)naphthalen-2-ol diformate], for which the pIC50 is 7.75 on KRAS_G12D and cRAF; 5.68 at KRAS_WT and SOS1; 7.75 at KRAS-G12D and SOS1.

As to `CN1CCC[C@@]1(C)COc1nc(N2CC3CCC(C2)N3)c2cnc(-c3cc(O)cc4ccccc34)c(F)c2n1` [Compound 136, 4-(4-((1R,5S)-3,8-diazabicyclo[3.2.1]octan-3-yl)-2-((S)-1,2-methylpyrrolidin-2-yl)methoxy)-8-fluoropyridinyl[4,3-d]pyrimidin-7-yl)naphthalen-2-ol diformate], the pIC50 at KRAS_G12D and cRAF was 7.17; at KRAS_WT and SOS1, 5.93; at KRAS-G12D and SOS1, 7.51.

As for `Cc1cccc2cc(O)cc(-c3c(Cl)cc4c(N5CC6CCC(C5)N6)nc(N5CC(N(C)C)C5)nc4c3F)c12` (single isomer, unassigned) [Compound 47a, 4-((S or R)-4-((1R,5S)-3,8-diazabicyclo[3.2.1]octan-3-yl)-6-chloro-2-(3-(dimethylamino)azetidin-1-yl)-8-fluoroquinazolin-7-yl)-5-methylnaphthalen-2-ol], the pIC50 on KRAS_G12D and cRAF was 6.08; at KRAS_WT and SOS1, 5.24; on KRAS-G12D and SOS1 it was 6.68.

With `CO[C@H]1CCN(CCCOc2nc(N3CC4CCC(C3)N4)c3cc(Cl)c(-c4cc(O)cc5ccccc45)c(F)c3n2)[C@H](C)C1` (single isomer, unassigned) [Compound 258, 4-((S or R)-4-((1R,5S)-3,8-diazacyclo[3.2.1]octan-3-yl)-6-chloro-8-fluoro-2-(3-((2R,4S)-4-methoxy-2-methylpiperidin-1-yl)propoxy)quinazolin-7-yl)naphthalen-2-ol diformate], the pIC50 is 6.66 at KRAS_G12D and cRAF; 5.21 at KRAS_WT and SOS1; 7.57 on KRAS-G12D and SOS1.

On to `Oc1cc(-c2c(Cl)cc3c(N4CC5CCC(C4)N5)nc(OC[C@@H]4CCCN4CC4CC4)nc3c2F)c2ccccc2c1` [Compound 172, 4-(4-((1R,5S)-3,8-diazabicyclo[3.2.1]octan-3-yl)-6-chloro-2-((S)-1-(cyclopropylmethyl)pyrrolidin-2-yl)methoxy)-8-fluoroquinazolin-7-yl)naphthalen-2-ol dihydrochloride], for which the pIC50 at KRAS_G12D and cRAF is 7.20; at KRAS_WT and SOS1, 6.18; on KRAS-G12D and SOS1 it was 7.71.

As for `C[C@@H](COc1nc(N2CC3CCC(C2)N3)c2cc(Cl)c(-c3cc(O)cc4ccccc34)c(F)c2n1)CN1CCOC2(CC2)C1` (single isomer, unassigned) [Compound 243, 4-((S or R)-4-((1R,5S)-3,8-diazabicyclo[3.2.1]octan-3-yl)-6-chloro-8-fluoro-2-((R)-2-methyl-3-(4-oxa-7-azaspiro[2.5]octan-7-yl)propoxy)quinazolin-7-yl)naphthalen-2-ol formate], the pIC50 at KRAS_G12D and cRAF was 7.43; at KRAS_WT and SOS1, 5.90; on KRAS-G12D and SOS1 it was 7.72.

`Oc1cc(-c2cc(F)c3c(N4CC5CCC(C4)N5)nc(OCCCN4C5CCC4COC5)nc3c2F)c2ccccc2c1` [Compound 253, 4-(2-(3-(3-Oxa-8-azabicyclo[3.2.1]octan-8-yl)propoxy)-4-((1R,5S)-3,8-diazabicyclo[3.2.1]octan-3-yl)-5,8-difluoroquinazolin-7-yl)naphthalen-2-ol formate]: the pIC50 is 6.31 at KRAS_G12D and cRAF; 5.70 at KRAS_WT and SOS1; 7.20 on KRAS-G12D and SOS1.

On to “((3R or 3S, 7aR or 7aS)-7a-((4-((1R,5S)-3,8-diazabicyclo[3.2.1]octan-3-yl)-6-chloro-8-fluoro-7-(3-hydroxynaphthalen-1-yl)quinazolin-2-yl)oxy)methyl)hexahydro-1H-pyrrolidin-3-yl)dimethylcarbamate tristrifluoroacetate [Compound 232b]”, for which the pIC50 on KRAS_G12D and cRAF was 7.83; on KRAS_WT and SOS1, 7.18; at KRAS-G12D and SOS1, 7.87.

Regarding `CN(CCCOc1nc(N2CC3CCC(C2)N3)c2cc(Cl)c(-c3cc(O)cc4ccccc34)c(F)c2n1)CCC(O)CO` (single isomer, unassigned) [Compound 148, 4-((3-((S or R)-4-((1R,5S)-3,8-diazabicyclo[3.2.1]octan-3-yl)-6-chloro-8-fluoro-7-(3-hydroxynaphthalen-1-yl)quinazolin-2-yl)oxy)propyl)(methyl)amino)butan-1,2-diol ditrifluoroacetate], the pIC50 on KRAS_G12D and cRAF is 6.91; on KRAS_WT and SOS1, 5.53; on KRAS-G12D and SOS1 it was 7.54.

Turning to `CN1CC(COc2nc(N3CC4CCC(C3)N4)c3cc(Cl)c(-c4cc(O)cc5ccccc45)c(F)c3n2)C1` (single isomer, unassigned) [Compound 91, 4-((S or R)-4-((1R,5S)-3,8-diazabicyclo[3.2.1]octan-3-yl)-6-chloro-8-fluoro-2-((1-methylazetidin-3-yl)methoxy)quinazolin-7-yl)naphthalen-2-ol tritrifluoroacetate], the pIC50 on KRAS_G12D and cRAF was 7.11; at KRAS_WT and SOS1, 5.96; on KRAS-G12D and SOS1, 7.82.

Take `Oc1cc(-c2c(Cl)cc3c(N4CC5CCC(C4)N5)nc(OCCCN4CC5(COC5)C4)nc3c2F)c2ccccc2c1` (single isomer, unassigned) [Compound 245, 4-((S or R)-2-(3-(2-oxa-6-azaspiro[3.3]heptan-6-yl)propoxy)-4-((1R,5S)-3,8-diazacyclo[3.2.1]octan-3-yl)-6-chloro-8-fluoroquinazolin-7-yl)naphthalen-2-ol diformate]: the pIC50 at KRAS_G12D and cRAF was 6.96; on KRAS_WT and SOS1, 5.83; at KRAS-G12D and SOS1, 7.56.

On to `Oc1cc(-c2c(Cl)cc3c(N4CC5CCC(C4)N5)nc(OC[C@@H]4CCCN4C4CC4)nc3c2F)c2ccccc2c1` (single isomer, unassigned) [Compound 163, 4-((R or S)-4-((1R,5S)-3,8-diazabicyclo[3.2.1]octan-3-yl)-6-chloro-2-((S)-1-cyclopropylpyrrolidin-2-yl)methoxy)-8-fluoroquinazolin-7-yl)naphthalen-2-ol dihydrochloride], for which the pIC50 on KRAS_G12D and cRAF was 7.30; on KRAS_WT and SOS1 it was 6.10; on KRAS-G12D and SOS1, 7.73.

`CN(C)C1CN(c2nc(N3CCNC4CC43)c3cc(Cl)c(-c4cc(O)cc5ccccc45)c(F)c3n2)C1` (single isomer, unassigned) [Compound 28, 4-((S or R)-4-((1R,6S or 1S,6R)-2,5-diazabicyclo[4.1.0]heptan-2-yl)-6-chloro-2-(3-(dimethylamino)azetidin-1-yl)-8-fluoroquinazolin-7-yl)naphthalen-2-ol trifluoroacetate]: the pIC50 on KRAS_G12D and cRAF is 5.33; on KRAS_WT and SOS1, 4.65; on KRAS-G12D and SOS1, 6.51.
